# Assay results reported in US11505592B2, “Diagnosis and therapy of multiple sclerosis” (PRINDEX S.R.L., priority 2015, dated 2022).
# Bridges are numbered along the chain shown (N, C = ends). Where no end group is shown, it is not given here. dibromoxylene = α,α'-dibromoxylene, used to cyclize the peptide by reaction with its two cysteines
# Experiments:
# MS sera = assay: PEPSCAN-based ELISA, binding of MS sera to library peptides; parameters: species or system human; conditions: ELISA binding value, MS sera n = 9
# Source text: (§1) The linear and CLIPS peptides are synthesized based on the amino acid sequence of the target protein using standard Fmoc-chemistry and deprotected using […] with scavengers. The constrained peptides are synthesized on chemical scaffolds in order to reconstruct conformational epitopes, using Chemically Linked Peptides on Scaffolds (CLIPS) technology (Timmerman et al. (2007). For example, the single looped peptides are synthesized containing a dicysteine, which was cyclized by treating with alpha, alpha′-dibromoxylene and the size of the loop is varied by introducing cysteine residues at variable spacing. If other cysteines besides the newly introduced cysteines are present, they are replaced by alanine. The side-chains of the multiple cysteines in the peptides are coupled to CLIPS templates by reacting onto credit-card format polypropylene PEPSCAN cards (455 peptide formats/card) with a 0.5 mM solution of CLIPS template such as 1,3-bis (bromomethyl) benzene in ammonium bicarbonate (20 mM, pH 7.9)/acetonitrile (1:1(v/v)). The cards are gently shaken in the solution for 30 to 60 minutes while completely covered in solution. Finally, the cards are washed extensively with excess of H2O and sonicated in distrupt-buffer containing 1 percent SDS/0.1 percent beta-mercaptoethanol in PBS (pH 7.2) at 70° C. for 30 minutes, followed by sonication in H2O for another 45 minutes.
# (§2) The binding of antibody to each peptide is tested in a PEPSCAN-based ELISA. The 455-well credit card format polypropylene cards containing the covalently linked peptides are incubated with primary antibody solution for example consisting of 1/1000 diluted serum in blocking solution, for example 4% horse serum, 5% ovalbumin (w/v) in PBS/1% Tween. After washing, the peptides are incubated with a 1/1000 dilution of antibody peroxidase conjugate for one hour at 25° C. After washing, the peroxidase substrate 2,2′-azino-di-3-ethylbenzthiazoline sulfonate (ABTS) and 2 microlitres of 3 percent H2O2 are added. After one hour, the color development are measured. The color development are quantified with a charge coupled device (CCD)-camera and an image processing system (Slootstra et al., 1996).
# (§3) The raw data are optical values obtained by a CCD-camera calibrated to export absorption values compatible with a standard 96-well plate ELISA-reader. First the CCD-camera makes a picture of the card before peroxidase coloring and then again a picture after the peroxidase coloring. These two pictures are substracted from each other yielding a binding value for each peptide.
# (§4) All peptides have been synthesized in a peptide array format and the binding of 20 different sera to all peptide libraries were measured in an ELISA based set up following the procedure described in detail in the method section “Peptide synthesis and screening assays”. In particular 2 sets of experiments were performed on the 2 libraries by using 2 different dilutions of the human patients sera. In the first set of experiment the 20 sera were used at 1:2500 dilutions, while in the second experiment the dilution of the sera was 1:1000. The binding of the different sera to all peptides was quantified and analyzed in detail (Tables 1 and 2, FIGS. 15A, B, C, D and […]
# CTRL sera = assay: PEPSCAN-based ELISA, binding of control (CTRL) sera to library peptides; parameters: species or system human; conditions: ELISA binding value, CTRLs n = 10
# Source text: as §1, §2, §3, §4
Sequence,MEAN MS (MS sera; NOX2 library),MEAN CTRL (CTRL sera; NOX2 library),MEAN MS (MS sera; 5HT2A receptor library),MEAN CTRL (CTRL sera; 5HT2A receptor library)
CAVHNITVSEQKISEWCQNESYLNFARKRIKNC [SEQ ID NO: 126],685.667,370.15,–,–
CAVHNITVSEQKISEWCSYLNFARKRIKNPEGC [SEQ ID NO: 133],648.556,375.55,–,–
CAVHNITVSEQKISEWCVSEQKISEWGKIKESC [SEQ ID NO: 123],697.000,392.5,–,–
CDSKVFKEGSSLLACKESSNEDVIGALLC [Peptide 16],–,–,604.03,347.50
CDSKVFKEGSSLLACMDILSEENTSLSSC [Peptide 28],–,–,429.00,236.60
CDSKVFKEGSSLLACSENRTNLSSEGSLC [Peptide 46],–,–,512.94,296.70
CDSKVFKEGSSLLACSGEANTSDAFNWTC [Peptide 37],–,–,623.06,333.75
CENTSLSSTTNSLMCMDILSEENTSLSSC [Peptide 17],–,–,316.22,175.00
CERIVRGQTAESLAVHCQNESYLNFARKRIKNC [SEQ ID NO: 75],833.444,455.55,–,–
CESLAVHNITVSEQKICGDRQNESYLNFARKRC [SEQ ID NO: 136],730.278,409.15,–,–
CESLAVHNITVSEQKICQNESYLNFARKRIKNC [SEQ ID NO: 74],689.556,354.9,–,–
CESLAVHNITVSEQKICSYLNFARKRIKNPEGC [SEQ ID NO: 79],639.611,357.1,–,–
CEWSVNARVNNSDPYSCPYSVALSELGDRQNEC [SEQ ID NO: 72],428.167,225.5,–,–
CEWSVNARVNNSDPYSCQNESYLNFARKRIKNC [SEQ ID NO: 103],714.944,372.8,–,–
CEWSVNARVNNSDPYSCVSEQKISEWGKIKESC [SEQ ID NO: 155],760.083,433.775,–,–
CFNVEWSVNARVNNSDCGDRQNESYLNFARKRC [SEQ ID NO: 129],792.889,423.15,–,–
CFNVEWSVNARVNNSDCVSEQKISEWGKIKESC [SEQ ID NO: 141],784.944,447.325,–,–
CFNWTVDSENRTNLCMDILSEENTSLSSC [Peptide 30],–,–,312.00,174.90
CGDRQNESYLNFARKRCGDRQNESYLNFARKRC [SEQ ID NO: 85],775.500,404.05,–,–
CGDRQNESYLNFARKRCQNESYLNFARKRIKNC [SEQ ID NO: 70],831.278,412.7,–,–
CGDRQNESYLNFARKRCSYLNFARKRIKNPEGC [SEQ ID NO: 131],730.222,401.95,–,–

Sequence,MEAN MS (MS sera; NOX2 library),MEAN CTRL (CTRL sera; NOX2 library),MEAN MS (MS sera; 5HT2A receptor library),MEAN CTRL (CTRL sera; 5HT2A receptor library)
CGDRQNESYLNFARKRCVSEQKISEWGKIKESC [SEQ ID NO: 152],805.278,461.6,–,–
CHGAERIVRGQTAESLCNFARKRIKNPEGGLYC [SEQ ID NO: 89],733.889,404.6,–,–
CHGAERIVRGQTAESLCQKISEWGKIKESPIPC [SEQ ID NO: 101],734.917,407.625,–,–
CHGAERIVRGQTAESLCQNESYLNFARKRIKNC [SEQ ID NO: 73],748.111,407.2,–,–
CHGAERIVRGQTAESLCSYLNFARKRIKNPEGC [SEQ ID NO: 82],755.722,417.5,–,–
CITVSEQKISEAAKIKC (linker 1-17 via dibromoxylene (inferred)) [SEQ ID NO: 147],703.000,383.25,–,–
CKISEWGKIKC [SEQ ID NO: 108],672.833,367.95,–,–
CLGDRQNESYLAAARKC [SEQ ID NO: 145],698.944,402.85,–,–
CLNFARKRIKC [SEQ ID NO: 87],713.333,374.7,–,–
CLNFARKRIKNAAGGLC [SEQ ID NO: 92],691.444,367,–,–
CLQDDSKVFKEGSSCKESSNEDVIGALLC [Peptide 48],–,–,632.28,373.15
CLQDDSKVFKEGSSCMDILSEENTSLSSC [Peptide 7],–,–,434.67,233.80
CLSEENTSLSSTTNCMDILSEENTSLSSC [Peptide 39],–,–,303.50,184.40
CLSPSSLSLLHLQECMDILSEENTSLSSC [Peptide 10],–,–,305.00,183.45
CLSPSSLSLLHLQECTVDSENRTNLSSEC [Peptide 27],–,–,427.89,263.00
CLSSEGSLSPSSLSCMDILSEENTSLSSC [Peptide 26],–,–,320.72,188.85
CLTILYGYRWPAASKLC [Peptide 41],–,–,782.33,449.80
CLTILYGYRWPLPSCKESSNEDVIGALLC [Peptide 12],–,–,629.14,350.93
CLTILYGYRWPLPSCLYGYRWPLPSKLSC [Peptide 40],–,–,879.72,508.45
CLTILYGYRWPLPSCMDILSEENTSLSSC [Peptide 2],–,–,421.56,228.85
CLTILYGYRWPLPSKLC [Peptide 35],–,–,792.94,475.00

Sequence,MEAN MS (MS sera; NOX2 library),MEAN CTRL (CTRL sera; NOX2 library),MEAN MS (MS sera; 5HT2A receptor library),MEAN CTRL (CTRL sera; 5HT2A receptor library)
CLYGYRWPLPSKLSCKESSNEDVIGALLC [Peptide 20],–,–,689.03,390.93
CLYGYRWPLPSKLSCMDILSEENTSLSSC [Peptide 4],–,–,449.78,246.80
CLYGYRWPLPSKLSCSDAFNWTVDSENRC [Peptide 36],–,–,511.11,298.55
CLYGYRWPLPSKLSCSGEANTSDAFNWTC [Peptide 43],–,–,649.67,344.80
CLYGYRWPLPSKLSCYSNDFNSGEANTSC [Peptide 32],–,–,555.67,288.50
CMDILSEENTSLSSCMQLNDDTRLYSNDC [Peptide 21],–,–,392.28,223.85
CMDILSEENTSLSSCSKESSNEDVIGALC [Peptide 44],–,–,432.33,266.55
CMQLNDDTRLYSNDCMDILSEENTSLSSC [Peptide 9],–,–,379.67,212.40
CMQLNDDTRLYSNDCSGEANTSDAFNWTC [Peptide 15],–,–,497.78,257.25
CNDDTRLYSNDFNSCMDILSEENTSLSSC [Peptide 24],–,–,350.67,196.45
CNESYLNFARKAAKNPC [SEQ ID NO: 86],702.222,411.15,–,–
CNFARKRIKNC [SEQ ID NO: 60],748.389,374.6,–,–
CNFARKRIKNPEGGLYCGDRQNESYLNFARKRC [SEQ ID NO: 117],800.500,425.15,–,–
CNFARKRIKNPEGGLYCQNESYLNFARKRIKNC [SEQ ID NO: 65],801.056,410.85,–,–
CNFARKRIKNPEGGLYCSLAVHNITVSEQKISC [SEQ ID NO: 106],599.000,330.8,–,–
CNFARKRIKNPEGGLYCSYLNFARKRIKNPEGC [SEQ ID NO: 97],752.333,416.6,–,–
CNITVSEQKISAAGKIC [SEQ ID NO: 105],828.167,460.55,–,–
CNITVSEQKISEWGKICGDRQNESYLNFARKRC [SEQ ID NO: 144],816.722,446.7,–,–
CNITVSEQKISEWGKICQNESYLNFARKRIKNC [SEQ ID NO: 81],770.889,408.8,–,–
CNITVSEQKISEWGKICSYLNFARKRIKNPEGC [SEQ ID NO: 99],738.444,397.7,–,–
